Assay results published in patent US7371365B2, “Methods for detecting parenchymal plaques in vivo” (Mayo Foundation for Medical Education and Research, priority 2000, dated 2008).

Key:
BBB [1] = conditions: mouse, in vivo
Protocol: PS and Vp Determination in Mice. […] Blood was sampled from the femoral artery at several intervals during the next 15 minutes. Whole blood was sampled directly, using heparinized micro-hematocrit capillary tubes and TCA extracted. The supernatant was separated from the pellet and both were counted in a gamma counter. The radioactivity in the pellet was expressed as a percentage of the total radioactivity found in both the pellet and supernatant. An aliquot of the peptide labeled with ^131I was then injected into the femoral vein 15 seconds prior to sacrifice of the animal to serve as a measure of residual plasma volume (Vp; μl/g). After collection of the final blood sample, the anesthetized animal was sacrificed. […] The permeability coefficient x surface area products (PS; 10^−6 ml/g/s) were then calculated using the Vp as a measure of residual plasma volume based on equations that have been discussed in detail elsewhere (Poduslo and Curran, supra (1996a); Poduslo and Curran, supra (1996b); Wengenack, et al., supra (1997); Poduslo, et al., supra (1998); Poduslo, et al., supra (2000); Poduslo, et al., supra (2001). Statistical evaluations of PS and Vp were performed using ANOVA followed by Bonferroni multiple comparisons.

[2] = system: β-amyloid plaques in human AD brain sections; assay: Labeling of AD amyloid plaques in vitro with putrescine- and gadolinium-labeled Aβ; format: binding; conditions: equal amounts of radioactivity
Description: Labeling of AD Amyloid Plaques In Vitro with Putrescine- and Gadolinium-Labeled Aβ. […] The slides were dipped in emulsion, exposed, and developed according to the instructions. The sections were dehydrated with successive changes of ethanol and xylene and then coverslipped.

β-amyloid plaques = assay: MRI (7 Tesla, T2W/T1W) of post-mortem brain with thioflavin S histologic correlation after IV injection of probe in mice; format: in vivo, APP-PS1 transgenic mice; conditions: for T1 plaque enhancement on T1W images / accelerated T2 relaxation on T2W images: APP-PS1 transgenic mouse, four hours
[3] = system: amyloid deposits in AD temporal lobe cortex sections; assay: Labeling of amyloid deposits in vitro in AD temporal lobe cortex sections (film and emulsion autoradiography); format: binding, human; conditions: for specificity of binding for type of amyloid deposit: AD temporal lobe cortex sections in vitro
Protocol: The sections were washed with TBS, pH 7.0 four times and then rinsed briefly with distilled water twice. The sections were allowed to air dry overnight in a box with desiccant at 4° C.
Sections then underwent immunohistochemistry (IH) for amyloid using an anti-Aβ monoclonal mouse antibody (4G8, Senetek). Untreated sections were included as a positive control for antibody staining. After rehydrating with TBS, pH 7.6, the sections were fixed briefly with neutral-buffered, 10% formalin for 3 minutes. The sections were washed with TBS and then blocked with 1.5% normal horse serum in TBS for 30 minutes. The sections were incubated with the anti-Aβ primary antibody at a dilution of 1:1000 in 0.1% BSA/TBS overnight at 4° C. The primary antibody was then visualized using a Vectastain Elite ABC, immunoperoxidase kit with diaminobenzidine (DAB) as a substrate according to the instructions (Vector Laboratories). The sections were allowed to air dry overnight in a box with desiccant at 4° C.
FIGS. 2A-2B are the film autoradiographs. Note the presence of punctate areas of exposed film located predominantly in the regions corresponding to gray matter. This is similar to the distribution of amyloid deposits seen following IH of the tissue sections. It was possible to overlay the two for direct correspondence under the microscope.
In order to definitively correlate the IH with the iodinated peptide by colocalization, the sections were next dipped in an autoradiographic emulsion (Type NTB-3, Kodak). The slides were dipped in emulsion at 43° C. under Safelight illumination in a darkroom. The slides were chilled to solidify the emulsion and then allowed to air dry at room temperature for 3 hours in a light-proof box. The slides were exposed at 4° C. in a light-proof box with desiccant. The slides were developed with Dektol developer (Kodak) and fixed (Kodak) according to the instructions. The sections were dehydrated with successive changes of ethanol and xylene and then coverslipped with a xylene-based mounting media (CMS).

[4] = system: parenchymal amyloid deposits; assay: Labeling of amyloid deposits in vivo after i.v. injection in APP, PS1 transgenic mice; conditions: 200 μg i.v., four hours, emulsion autoradiography, PS1 transgenic mice 27 weeks of age
Chain of parenchymal amyloid deposits (P05067 672-711 limits assumed): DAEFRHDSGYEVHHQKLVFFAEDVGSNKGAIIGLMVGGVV
Description: These mice develop amyloid deposits and behavioral deficits within 12 weeks of age. Hemizygous transgenic mice (Tg2576) expressing mutant human amyloid precursor protein (APP695) were mated with a second strain of hemizygous transgenic mice (M146L5.1) expressing mutant human presenilin 1 (PS1). Holcomb, L., et al., Nature Med. 4:97-100 (1998). The animals were genotyped for the expression of both transgenes by a dot blot method using a sample of mouse tail DNA. The mice were housed in a virus-free barrier facility under a 12-hour light/dark cycle, with ad lib access to food and water.
After four hours, each animal was perfused with PBS and fixed with neutral-buffered, 10% formalin following an overdose with sodium pentobarbital (75 mg/kg, i.p.). After cryoprotecting in 10% and 30% sucrose in PBS, frozen sections of each brain were cut with a freezing microtome and then processed with anti-Aβ IH and emulsion autoradiography for the presence of radiolabeled amyloid deposits using the same methods described above for the human AD sections.

[5] = in vivo, iv; cited from earlier work
BBB [6] = format: in vivo, Sprague-Dawley rats; conditions: rat
Protocol: Poduslo, J. F. and Curran, G. L., Proc. Natl. Acad. Sci. USA 89:2218-2222 (1992); Poduslo, J. F. and Curran, G. L., Molec. Brain Res. 23:157-162 (1994); and Poduslo, J. F., et al., Proc. Natl. Acad. Sci. USA 9:5705-5709 (1994). Putrescine modification of synthetic human Aβ1-40 was performed by covalent linkage of the polyamine to carboxylic acid groups using carbodiimide at a pH of 6.7. Poduslo, J. F. and Curran, G. L., J. Neurochem. 66:1599-1609 (1996); and Poduslo, J. F. and Curran, G. L., J. Neurochem.
PS and Vp values were determined in normal adult male Sprague-Dawley rats (400-450 g) obtained from Harlan. […] Blood (200 μl) was sampled from the brachial artery at several intervals during the next 15 minutes.

Compound	exposure time required for detection of plaque binding (emulsion autoradiography) [2]	T1 plaque enhancement on T1W images (β-amyloid plaques; IV injection)	accelerated T2 relaxation on T2W images (β-amyloid plaques; IV injection)	specificity of binding for type of amyloid deposit [3]	labeling of parenchymal amyloid deposits in vivo [4]	amount of radiolabeled peptide present in PBS-perfused brain [5]	further results
Gd-Aβ: Aβ (1-40) with DTPA chelating arm at the amino terminus, chelated with gadolinium; Aβ to Gd 1:1	nine	no significant plaque enhancement	accelerated T2 relaxation was observed in plaques				effect of gadolinium labeling of Aβ on the PS value (BBB [1]): decrease in the PS value in five of the six brain regions, however, this was of non-significant magnitude
Aβ 1-40: synthetic human amyloid β peptide 1-40, native (unmodified); radioiodinated for the measurements [reference compound]				specific for dense-core, neuritic-type amyloid deposits	did not exhibit labeling of any parenchymal amyloid deposits	0.03%	
PUT Aβ 1-40: synthetic human Aβ1-40 with putrescine covalently linked to carboxylic acid groups using carbodiimide; radioiodinated for the measurements				specific for dense-core, neuritic-type amyloid deposits	able to cross the BBB and bind to amyloid deposits in vivo	0.35%	increase of permeability at the blood brain barrier by putrescine modification (BBB [6]): two-fold; density of exposed silver grains on amyloid deposits (emulsion autoradiography) ([3]; equal amounts of radioactivity and exposure time (6 days), versus 125I-Aβ1-40): higher density of silver grains
putrescine-gadolinium-amyloid-β peptide [PUT-Gd-Aβ]	one	many focal areas of accelerated T1 relaxation visible as bright spots	Numerous focal areas of accelerated T2 relaxation				T1 CNR (contrast-to-noise ratio) (β-amyloid plaques; APP-PS1 mice, IV injection, T1W MRI, mean ± SEM, n = 15 plaques): 7.13 ± 1.03; T1 PBR (plaque-to-background voxel intensity ratio) (β-amyloid plaques; APP-PS1 mice, IV injection, T1W MRI, mean ± SEM, n = 15 plaques, maximum intensity): 1.24 ± 0.04; T2 CNR (contrast-to-noise ratio) (β-amyloid plaques; APP-PS1 mice, IV injection, T2W MRI, mean ± SEM, n = 15 plaques): −8.95; T2 PBR (plaque-to-background voxel intensity ratio) (β-amyloid plaques; APP-PS1 mice, IV injection, T2W MRI, mean ± SEM, n = 15 plaques, minimum intensity): 0.29 ± 0.03; fold increase of T1 CNR in injected mice (β-amyloid plaques; APP-PS1 mice, T1 images): 4.2-9.4 fold; fold increase of T1 PBR in injected mice (β-amyloid plaques; APP-PS1 mice, T1 images): 1.2 fold; cortical tissue volume occupied by enhanced plaque (β-amyloid plaques; APP-PS1 mouse, T1W, interpretation of pixel proportion): roughly 10%; proportion of pixels within cortical ROI whose intensity exceeded the 4-S.D. threshold (β-amyloid plaques; APP-PS1 mouse, T1W, mean (±S.D.) across 10 images, 812.5×812.5 μm ROI): 9.9%; MRI features in non-transgenic mouse (focal areas of accelerated T1 relaxation) (β-amyloid plaques; non-transgenic mouse, compared with PBS-injected non-transgenic mouse (no focal T1 areas)): yielded the same results
O=C([O-])CN(CCN(CC(=O)[O-])CC(=O)O)CCN(CC(=O)[O-])CC(=O)O.[Gd+3] [Gd-DTPA, gadolinium diethylenetriaminepentaacetic acid, reference compound]		No evidence of T1 plaque enhancement	expected focal areas of T2 acceleration that corresponded to plaques				
NCCCCN [putrescine, reference compound]							effect of unbound putrescine on binding of iodinated peptide to amyloid deposits ([3]; 10-fold excess unbound putrescine, 100 pM 125I-Aβ1-40 or 125I-PUT-Aβ1-40): no appreciable effect on binding of iodinated peptide
